The values that follow come from patent US7271198B2, “Method of treating autoimmune diseases” (Wake Forest University, priority 2000, dated 2007).

One experiment has as its system HDAC. To be noted: statement from cited literature; cited from earlier work.
For a further experiment, the system named is TGF-β1 mRNA. In words: PCR of TGF-β1 mRNA in SLE and control T cells / PBMCs. It counts as cell-based, human. The settings on record: SLE PBMCs exposed to TSA and SAHA (summary statement). Here is the method: (§1) Gene expression of TGF-β1 was tested to determine if the gene expression is suppressed by deacetylation of histones in SLE. In this determination, SLE PBMCs or isolated T cells were treated with the histone deacetylase inhibitors (HDIs), TSA or SAHA, for 18hr. […] Subsequently, semi-quantitative PCR was performed to determine the amounts of […] transcripts in SLE and control T cells treated with vehicle or TSA (1000 ng/ml). […] There is no change in GAPDH transcript in normal and SLE T cells after treatment of HDIs. Increased TGF-β1 transcript was associated with a subsequent increase in TGF-β1 protein secretion by SLE PBMCs. When compared to vehicle treated PBMCs, total TGF-β1 protein in culture supernatants from SLE PBMCs increased by approximately 30%. In contrast, there was no increase in total TGF-β1 secretion in TSA treated cells in normal healthy controls. Similar results may be obtained by SAHA.

The next experiment relates to TGF-β1 protein. In words: TGF-β1 protein secretion by PBMCs. It is filed as cell-based, human. The settings on record: SLE PBMCs exposed to TSA and SAHA (summary statement). Here is the method: as §1
Experiment [1] has as its system acetylated H3 and H4 histones. In words: Western immunoblot of acetylated H3 and H4 histones in SLE PBMCs. It is filed as cell-based, human. To be noted: 1000 ng/ml TSA or 20 μM SAHA, 18 hr. Here is the method:
The effect of TSA and SAHA was examined to determine if HDIs induce accumulation of acetylated histones in SLE PBMCs on the level of histone acetylation in SLE PBMCs. Following culture of PBMCs in the presence of vehicle, 1000 ng/ml TSA or 20 μM SAHA for 18 hr, histones were isolated.

A further experiment has as its system IFN-γ mRNA. In words: IFN-γ mRNA in MRL/lpr splenocytes. It is filed as cell-based, mouse. Here is the method:
In determining whether TSA can down-regulate IFN-γ mRNA, splenocytes from older, 24-wk MRL/lpr mice were treated with 0 to 500 ng/ml of TSA for 18 hr. […] Compared to splenocytes from 10-wk old mice that had low IFN-γ mRNA (FIG. 8B, lane 1), older mice had higher constitutive levels of IFN-γ transcripts normalized to the housekeeping gene, GAPDH (FIG. 8A, lane 1). […] Maximal inhibition of IFN-γ transcript consistently occurred at 500 ng/ml of TSA.
To establish whether TSA or SAHA down-regulates Con A-induced IFN-γ mRNA expression, splenocytes from 10-wk old mice were stimulated with Con A (10 μg/ml) for 18 hr. From previous kinetic studies, IFN-γ mRNA is maximally expressed when T cells are activated for 18 hr. […] Thus, both TSA and SAHA inhibit IFN-γ. mRNA up-regulation in response to mitogenic stimulation.

For the next experiment, the system named is IFN-γ protein. In words: IFN-γ protein secretion by MRL/lpr splenocytes. It counts as cell-based, mouse. The settings on record: Con A-stimulated splenocytes from younger MRL/lpr mice, 72 hr; p=0.004. From the text: The marked inhibition of IFN-γ transcript by these inhibitors prompted us to quantify IFN-γ protein secretion in splenocyte culture supernatants. Over 72 hr, Con A, but not LPS, stimulated splenocytes from younger MRL/lpr mice to secrete a mean (±SEM) 1,563.2±88.3 pg/ml of IFN-γ (FIG. 8D). […] Thus, inhibition of IFN-γ transcription by TSA and SAHA blocks secretion of IFN-γ protein by splenocytes.

Experiment [2] relates to IL-12 p35 and p40 transcripts. In words: IL-12 p35 and p40 transcripts in MRL/lpr splenocytes. It is filed as cell-based, mouse. The settings on record: splenocytes from 10-wk old MRL/lpr mice preincubated 18 hr, stimulated 6 or 18 hr. Here is the method: In this study, the question of whether TSA down-regulates transcription of both IL-12 p35 and p40 subunit mRNA was investigated. […] Splenocytes were stimulated with LPS and IFN-γ for 6 or 18 hr. […] When splenocytes were preincubated with TSA or SAHA for 18 hr and then stimulated with LPS and IFN-γ IL-12 p35 and p40 transcripts were undetectable (FIGS. 9B–D).

A further experiment deals with IL-12 p40 protein. In words: IL-12 p40 protein secretion by MRL/lpr splenocytes. It counts as cell-based, mouse. The settings on record: splenocytes stimulated with LPS and IFN-γ 24 hr; stimulated control 45.3±9.1; p=0.003. How it is done:
When splenocytes were activated with LPS (100 μg/ml) and IFN-γ 100U/ml) for 24 hr the mean (±SEM) IL-12 p40 secretion was 45.3±9.1 pg/ml.

In the next experiment the test system is IL-6 mRNA. In words: IL-6 mRNA in MRL/lpr splenocytes. It is filed as cell-based, mouse. To be noted: splenocytes from younger MRL/lpr mice pretreated 18 hr, stimulated 6 or 18 hr. How it is done:
(§2) In determining whether TSA or SAHA down-regulate IL-6 mRNA content, splenocytes from 24-wk MRL/lpr mice were treated with increasing concentrations of TSA for 18 hr. […] TSA decreased IL-6 transcript at a concentration of 100 ng/ml and exerted maximal inhibition at 300 ng/ml. To address whether TSA and SAHA down-regulate LPS- and IFN-γ induced IL-6 transcript levels, splenocytes from younger MRL/lpr mice were treated in the absence or presence of TSA or SAHA for 18 hr before LPS and IFN-γ stimulation for 6 or 18 hr. […] Next, the effect of TSA and SAHA on IL-6 protein secretion in stimulated splenocytes was measured (FIG. 10D). When splenocytes were cultured with LPS and IFN-γ for 72 hr, there was a mean (±SEM) 34.4±7.6 pg/ml of IL-6 protein secretion.

For the next experiment, the system named is IL-6 protein. In words: IL-6 protein secretion by MRL/lpr splenocytes. It counts as cell-based, mouse. To be noted: splenocytes with LPS and IFN-γ 72 hr; stimulated control 34.4±7.6 pg/ml; p=0.002. Here is the method: as §2
A further experiment deals with IL-10 mRNA. In words: IL-10 mRNA in MRL/lpr splenocytes. It is filed as cell-based, mouse. To be noted: splenocytes from 10-wk old MRL/lpr mice pretreated 18 hr, stimulated 6 or 18 hr. How it is done:
In investigating whether TSA down-regulates IL-10 mRNA, MRL/lpr splenocytes were treated with increasing concentrations of TSA. The heightened, constitutive expression of IL-10 mRNA confirms previous findings (FIGS. 11A & 11B, lane 1). […] To address whether TSA and SAHA down-regulate LPS- and IFN-γ induced IL-10 transcript, splenocytes from 10-wk old MRL/lpr mice were treated in the absence or presence of TSA or SAHA for 18 hr before LPS and IFN-γ stimulation for 6 or 18 hr.

Another experiment deals with IL-10 protein. In words: IL-10 protein secretion by MRL/lpr splenocytes. It is filed as cell-based, mouse. The settings on record: MRL/lpr splenocytes stimulated by LPS, Con A, or LPS+IFN-γ, 72 hr. From the text: To determine the effect of TSA and SAHA on IL-10 protein secretion, MRL/lpr splenocytes were stimulated with Con A, LPS, or LPS+IFN-γ for 72 hr in the absence or presence of TSA or SAHA. As shown in the FIG. 11D, splenocytes stimulated with Con A, LPS, or LPS+IFN-γ secreted a mean (±SEM) of 31.8±4.5, 32.3±1.9, and 34.8±4.9 pg/ml, respectively, of IL-10 protein.

In experiment [3] the test system is acetylated H3 and H4 histones. In words: Immunoblot of acetylated H3 and H4 histones in MRL/lpr splenocytes. It is filed as cell-based, mouse. To be noted: 18 hr exposure. From the text:
One mechanism by which HDIs suppress transcription of cytokine genes in MRL/lpr splenocytes may be by increasing accumulation of acetylated histones which may result in chromatin remodeling. The accumulation of acetylated histones H3 and H4 in HDI-treated splenocytes was quantified to test this hypothesis. FIG. 12 is an immunoblot analysis of the acetylation levels of H3 and H4 histones.
On the technique in general: Immunoblotting shows a protein as a band on a membrane.

The next experiment has as its system iNOS mRNA. In words: iNOS mRNA induction in MRL/lpr splenocytes. It is filed as cell-based, mouse. The settings on record: splenocytes from 10 wk old mice, LPS and IFN-γ 24 hr. From the text: Excessive production of nitric oxide (NO) is crucial to the initiation and maintenance of glomerulonephritis in MRL/lpr mice. Pharmacologic inhibition of NO synthesis in MRL/lpr mice abrogates disease progression. In examining whether HDIs could suppress inducible nitric oxide synthetase (iNOS), splenocytes from 10 wk old mice were stimulated in the presence or absence of TSA or SAHA with LPS and IFN-γ for 24 hr. […] To determine whether HDIs could suppress nitric oxide secretion by mesangial cells, mesangial cells were stimulated with LPS ([…]) in the presence of vehicle or TSA for 24 hr. The supernatant from the cell culture was assayed for nitric oxide.

For the molecule `CCOC(=O)C(CCCCCC(=O)N(C)C)(CCCCCC(=O)N(C)C)C(=O)OCC` [EMBA, Diethyl bix(pentamethylene-N,N-dimethylcarboxamide) malonate], in the experiment with HDAC, the HDAC inhibition result is “not effective as HDAC Inhibitors”.

On to `CC(=O)NCCCCCCNC(C)=O` [HBMA, Hexamethylene bisacetamide], for which the HDAC inhibition entry in the experiment with HDAC is “not effective as HDAC Inhibitors”.

In the case of `O=C(CCCCCCC(=O)Nc1ccccc1)NO` [SAHA, Suberoylanilide Hydroxamic Acid], the “increase in TGF-β1 transcript” value with TGF-β1 mRNA is recorded as “eight-fold”. In the experiment on TGF-β1 protein, the “rise in the synthesis of TGF-β1 protein” value came out at 30%. For the same molecule, the “accumulation of acetylated H3 and H4 histones” value was “induced the accumulation” in [1] and “marked increase” in experiment [3]. Besides, the “optimal dose in dose titration experiments” value in the experiment on IFN-γ mRNA (MRL/lpr splenocytes, data not shown) is 10 µM. Also, the “Con A-induced up-regulation of IFN-γ transcript” value in the experiment with IFN-γ mRNA (splenocytes from 10-wk old mice preincubated 18 hr, Con A 10 μg/ml 18 hr, vs vehicle) was “markedly reduced”. Also, the IFN-γ protein secretion result in the experiment on IFN-γ protein was “did not secrete detectable levels”. The “LPS and IFN-γ induced IL-12 p35 and p40 transcripts” value in experiment [2] is listed as “undetectable”. For the same molecule, the “IL-12 p40 secretion (mean±SEM)” value with IL-12 p40 protein is 9.1 ± 1.9 pg/mL. Also, in the experiment with IL-6 mRNA, the “LPS- and IFN-γ induced IL-6 mRNA” value is “no detectable IL-6 mRNA”. Moreover, in the experiment on IL-6 protein, the IL-6 protein secretion result is given as “no detectable IL-6 protein secretion”. The “LPS- and IFN-γ induced IL-10 mRNA” value in the experiment on IL-10 mRNA was “no detectable IL-10 mRNA”. For the same molecule, in the experiment on IL-10 protein, the IL-10 protein secretion result is listed as “no detectable IL-10 secretion”. Further, the “iNOS mRNA induction” value in the experiment on iNOS mRNA was “able to suppress iNOS mRNA induction”.

As to mono-MTM-depudecin, in the experiment with HDAC, the HDAC inhibition result is listed as “do not inhibit HDAC”.
